Source text: The samples were made in the standard quantity of 50 g, sufficient to perform the solubilisation and stability tests. The concentration ranges of the investigated actives and the sample preparation methods were established after a critical reading of the technical data sheets of each raw material.

Structure (SMILES): CCCCCCCCCCCCCCCC(=O)NCCO [PMEA, palmitoylethanolamide]
- individual solubilisation in the solubilising agent: possible to obtain the individual solubilisation

Structure (SMILES): CCCCCCCCCCCCCCCC(=O)NC(C)C [isopalmide, N-isopropyl-palmitoyl amide]
- individual solubilisation in the solubilising agent: possible to obtain the individual solubilisation
